Patent US9492450B2, “Inhibition of dynamin related protein 1 to promote cell death” (University of Pittsburgh—of the Commonwealth System of …, priority 2011, dated 2016)

Assays:
[1] = test system: Drp1 wild-type (WT) and knockout (KO) SV40-transformed MEF cells; assay: Drp1 wild-type and knockout MEF cells: cleaved caspase-3, CyQuant, OCR; type: cell-based, mouse
Description: FIG. 21A-F. Mdivi-1 enhances cisplatin sensitivity through Drp1-independent mechanisms. (A) Confirmation of the depletion of Drp1 in Drp1 knockout SV40-transformed MEF cells by western blot. (B) Drp1 wild-type (Drp1+/+) and knockout (Drp1−/−) MEF cells were treated as indicated for 20 h, and the number of apoptotic cells was determined by antibody recognizing cleaved caspase-3. […] (C) Drp1 wild-type and knockout MEF cells were treated with mdivi-1 for 24 h, and the cell number were determined by CyQuant assay. (D) OCR was measured after 1 h treatment of Drp1 wild-type and knockout MEF cells with DMSO or mdivi-1. (E) The combination effect of cisplatin with four analogs of mdivi-1. […]
Cell proliferation was determined using a CyQUANT Direct Cell Proliferation Assay kit (Invitrogen), the activity of caspase-3/7 was measured using a Caspase-Glo 3/7 Assay Systems (Promega, Madison, Wis.), and the MTS colorimetric survival assay was performed using the CellTiter 96 AQueous One Solution Cell Proliferation Assay kit (Promega, Madison, Wis.), according to the manufacturer's instructions. The survival fractions were calculated after setting untreated control cells at 100%. […] The cytotoxic interactions between the two drugs was determined using the method of Chou and Talalay. The combination index (CI) was determined using a computer program CompuSyn. […]

[2] = test system: Drp1; conditions: as said in Cassidy-Stone et al., Dev Cell 14:193-204; cited from earlier work
[3] = target: T1, Dnm1, the yeast ortholog of Drp1 (Saccharomyces cerevisiae, UniProt P54861); conditions: US2005/0038051 and US2008/0287473; cited from earlier work
T1 sequence (P54861 1-757): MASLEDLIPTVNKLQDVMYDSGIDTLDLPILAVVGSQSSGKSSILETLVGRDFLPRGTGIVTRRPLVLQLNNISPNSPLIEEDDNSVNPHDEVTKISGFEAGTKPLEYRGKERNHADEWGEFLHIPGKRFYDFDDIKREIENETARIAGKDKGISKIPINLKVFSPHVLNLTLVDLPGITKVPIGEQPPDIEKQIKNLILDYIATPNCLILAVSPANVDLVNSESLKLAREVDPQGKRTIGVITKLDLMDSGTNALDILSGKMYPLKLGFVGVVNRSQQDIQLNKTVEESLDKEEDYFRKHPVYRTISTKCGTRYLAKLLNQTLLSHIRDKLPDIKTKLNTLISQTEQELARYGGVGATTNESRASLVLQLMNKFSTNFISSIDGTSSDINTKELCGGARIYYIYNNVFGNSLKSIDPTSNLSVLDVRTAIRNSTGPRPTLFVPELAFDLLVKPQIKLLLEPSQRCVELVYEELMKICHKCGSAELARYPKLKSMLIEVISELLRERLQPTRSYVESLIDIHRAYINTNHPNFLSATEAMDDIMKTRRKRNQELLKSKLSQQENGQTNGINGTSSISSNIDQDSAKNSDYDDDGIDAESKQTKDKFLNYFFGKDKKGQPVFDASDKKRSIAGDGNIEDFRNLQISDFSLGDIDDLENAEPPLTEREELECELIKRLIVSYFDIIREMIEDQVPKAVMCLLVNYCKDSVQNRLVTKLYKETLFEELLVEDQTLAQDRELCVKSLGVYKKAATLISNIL

COc1cc(-n2c(=S)[nH]c3ccccc3c2=O)c(Cl)cc1Cl [mdivi-1]
mitochondrial respiration (OCR) in Drp1 WT and KO cells ([1]; 1 h treatment): inhibition | cell proliferation (CyQuant) in Drp1 WT and KO cells ([1]; 24 h): inhibition of cell proliferation | efficacy in inhibiting Drp1 relative to mdivi-1 [2]: full efficacy | inhibition of Dnm1 [3]: selective inhibitor
